Data published in BindingDB's records for doi:10.1021/jm8014537 (Pfizer, 2010).

Molecular target: CYP2D6 (Homo sapiens, UniProt P10635)
Assay: Inhibition of CYP2D6 in human liver microsomes

CYP2D6, sequence (P10635 whole entry): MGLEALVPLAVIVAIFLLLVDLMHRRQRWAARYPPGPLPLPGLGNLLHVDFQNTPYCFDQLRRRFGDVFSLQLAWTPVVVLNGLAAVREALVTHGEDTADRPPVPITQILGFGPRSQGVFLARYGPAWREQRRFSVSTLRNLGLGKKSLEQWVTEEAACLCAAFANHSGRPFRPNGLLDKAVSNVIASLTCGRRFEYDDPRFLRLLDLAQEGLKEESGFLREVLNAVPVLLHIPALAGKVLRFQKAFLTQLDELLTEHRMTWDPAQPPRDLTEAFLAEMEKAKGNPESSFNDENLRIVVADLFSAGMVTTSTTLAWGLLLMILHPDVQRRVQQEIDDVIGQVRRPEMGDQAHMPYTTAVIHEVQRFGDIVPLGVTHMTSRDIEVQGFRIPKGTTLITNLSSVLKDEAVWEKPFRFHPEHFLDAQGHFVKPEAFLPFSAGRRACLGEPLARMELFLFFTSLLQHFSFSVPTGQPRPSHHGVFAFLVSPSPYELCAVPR

IC50	SMILES
> 6 µM	CCC(C#N)(CC)c1ccc(CCC2(C3CCCC3)CC(=O)C(Cc3nc4nc(C)cc(C)n4n3)C(=O)O2)cc1F (configuration not stated) [2-[4-(2-{2-cyclopentyl-5-[(5,7-dimethyl[1,2,4]triazolo[1,5-a]pyrimidin-2-yl)methyl]-4-hydroxy-6-oxo-3,6-dihydro-2H-pyran-2-yl}ethyl)-2-fluorophenyl]-2-ethylbutanenitrile]
> 6 µM	Cc1cc(C)n2nc(CC3C(=O)CC(CCc4ccc(C(C)(C)O)c(F)c4)(C4CCCC4)OC3=O)nc2n1 (configuration not stated) [6-cyclopentyl-3-[(5,7-dimethyl[1,2,4]triazolo[1,5-a]pyrimidin-2-yl)methyl]-6-{2-[3-fluoro-4-(1-hydroxy-1-methylethyl)phenyl]ethyl}-4-hydroxy-5,6-dihydro-2H-pyran-2-one]
